For 7 compounds, carcinogen call results are on record in PubChem BioAssay AID1259411 (Chemical Carcinogenesis Research Information System (CCRIS), 2018).

Activity calls are given as the source filed them. The rule behind the calls is not given here.

This data set deals with rodent carcinogenicity bioassays, tumor incidence. The data set is described as follows: CCRIS carcinogenicity studies. To be noted: Dose: 0, Dose: 0. The gist of the method: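 Archive of carcinogenicity, mutagenicity, tumor promotion and tumor inhibition results drawn from journals, NCI reports and other sources, expert-reviewed; covers 1985-2011 and is no longer updated.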

Setting [1] is: Species: MOUSE, Strain/Sex: CD-1/FEMALE, Route: INTRAPERITONEAL, 175 NMOL (TOTAL DOSE) ADMINISTERED AS 1/7 OF DOSE WITHIN 24 HR AFTER BIRTH, 2/7 OF DOSE AT 8 D OLD, 4/7 OF DOSE AT 15, Tumor Site: Type of Lesion: LUNG: TUMOR.

For the compound `CN(C)c1nc(=O)n(C2CCCCC2)c(=O)n1C`, the carcinogen call was “inactive; negative” (Species: DOG, Strain/Sex: BEAGLE/FEMALE, Route: ORAL, 200, 1000 PPM IN DIET FOR 90 D OR 5000 PPM FOR 1 WK, THEN 2500 PPM FOR 4 D IN WK 2 THEN 3750 PPM FOR 3 D FOLLOWED BY, 200, 1000 PPM IN DIET FOR 90 D OR 5000 PPM FOR 1 WK, THEN 2500 PPM FOR 4 D IN WK 2 THEN 3750 PPM FOR 3 D FOLLOWED BY); “inactive; negative” (Species: DOG, Strain/Sex: BEAGLE/MALE, Route: ORAL, 200, 1000 PPM IN DIET FOR 90 D OR 5000 PPM FOR 1 WK, THEN 2500 PPM FOR 4 D IN WK 2 THEN 3750 PPM FOR 3 D FOLLOWED BY, 200, 1000 PPM IN DIET FOR 90 D OR 5000 PPM FOR 1 WK, THEN 2500 PPM FOR 4 D IN WK 2 THEN 3750 PPM FOR 3 D FOLLOWED BY); “inactive; negative” (Species: MOUSE, Strain/Sex: CD-1/FEMALE, Route: ORAL, 200, 2500, 10000 PPM IN DIET FOR 2 YR (STUDY DURATION: 2 YR), 200, 2500, 10000 PPM IN DIET FOR 2 YR (STUDY DURATION: 2 YR)); “inactive; negative” (Species: MOUSE, Strain/Sex: CD-1/MALE, Route: ORAL, 200, 2500, 10000 PPM IN DIET FOR 2 YR (STUDY DURATION: 2 YR), 200, 2500, 10000 PPM IN DIET FOR 2 YR (STUDY DURATION: 2 YR)); “inactive; negative” (Species: RAT, Strain/Sex: CRL-CD/FEMALE, Route: ORAL, 200, 1000, 2500 PPM IN DIET FOR 2 YR (STUDY DURATION: 2 YR), 200, 1000, 2500 PPM IN DIET FOR 2 YR (STUDY DURATION: 2 YR)); “inactive; negative” (Species: RAT, Strain/Sex: CRL-CD/MALE, Route: ORAL, 200, 1000, 2500 PPM IN DIET FOR 2 YR (STUDY DURATION: 2 YR), 200, 1000, 2500 PPM IN DIET FOR 2 YR (STUDY DURATION: 2 YR)).
For `O[C@H]1[C@@H]2O[C@@H]2c2c(ccc3cc4ccc5ccccc5c4nc23)[C@@H]1O`, the carcinogen call runs as follows: under setting [1], “active; positive”; (Species: MOUSE, Strain/Sex: CD-1/MALE, Route: INTRAPERITONEAL, 175 NMOL (TOTAL DOSE) ADMINISTERED AS 1/7 OF DOSE WITHIN 24 HR AFTER BIRTH, 2/7 OF DOSE AT 8 D OLD, 4/7 OF DOSE AT 15, Tumor Site: Type of Lesion: LIVER: TUMOR) “active; positive”.
Turning to `C#CCOc1ccc(CCNC(=O)C(OCC#C)c2ccc(Cl)cc2)cc1OC` (centres undefined), the carcinogen call runs as follows: (Species: Mouse, Strain/Sex: C57BL/10J CD-1 / Female (50/Group), Route: Oral, 13.2, 67.8, 284.6 mg/kg/day of 96.5% mandipropamid in diet for 80 wk, study duration 80 wk, 13.2, 67.8, 284.6 mg/kg/day of 96.5% mandipropamid in diet for 80 wk, study duration 80 wk) “inactive; negative”; (Species: Mouse, Strain/Sex: C57BL/10J CD-1 / Male (50/Group), Route: Oral, 10.6, 55.2, 222.7 mg/kg/day of 96.5% mandipropamid in diet for 80 wk, study duration 80 wk, 10.6, 55.2, 222.7 mg/kg/day of 96.5% mandipropamid in diet for 80 wk, study duration 80 wk) “inactive; negative”; (Species: Rat, Strain/Sex: Alpk:AP SD (Wistar-derived)/Female (52/Group), Route: Oral, 3.5, 17.6, 69.7 mg/kg/day of 96.5% mandipropamid in diet for 104 wk, study duration 104 wk, 3.5, 17.6, 69.7 mg/kg/day of 96.5% mandipropamid in diet for 104 wk, study duration 104 wk) “inactive; negative”; (Species: Rat, Strain/Sex: Alpk:AP SD (Wistar-derived)/Male (52/Group), Route: Oral, 3.0, 15.2, 61.3 mg/kg/day of 96.5% mandipropamid in diet for 104 wk, study duration 104 wk, 3.0, 15.2, 61.3 mg/kg/day of 96.5% mandipropamid in diet for 104 wk, study duration 104 wk) “inactive; negative”.
Take `CCCOC(=O)c1cc(O)c(O)c(O)c1`: the carcinogen call was “inactive; negative” (Species: MOUSE, Strain/Sex: B6C3F1/FEMALE, Route: ORAL, 6000, 12000 PPM IN DIET FOR 103 WK (STUDY DURATION: 103 WK), 6000, 12000 PPM IN DIET FOR 103 WK (STUDY DURATION: 103 WK)); “equivocal” (Species: MOUSE, Strain/Sex: B6C3F1/MALE, Route: ORAL, 6000, 12000 PPM IN DIET FOR 103 WK (STUDY DURATION: 103 WK), 6000, 12000 PPM IN DIET FOR 103 WK (STUDY DURATION: 103 WK), Tumor Site: Type of Lesion: HEMATOPOIETIC SYSTEM: MALIGNANT LYMPHOMA); “inactive; negative” (Species: RAT, Strain/Sex: F344/FEMALE, Route: ORAL, 6000, 12000 PPM IN DIET FOR 103 WK (STUDY DURATION: 103 WK), 6000, 12000 PPM IN DIET FOR 103 WK (STUDY DURATION: 103 WK)); “equivocal” (Species: RAT, Strain/Sex: F344/MALE, Route: ORAL, 6000, 12000 PPM IN DIET FOR 103 WK (STUDY DURATION: 103 WK), 6000, 12000 PPM IN DIET FOR 103 WK (STUDY DURATION: 103 WK), Tumor Site: Type of Lesion: PREPUTIAL GLAND: CARCINOMA OR ADENOMA OR ADENOCARCINOMA, PANCREAS: ISLET CELL ADENOMA OR CARCINOMA, ADRENAL GLAND: PHEOC, Tumor Site: Type of Lesion: PREPUTIAL GLAND: CARCINOMA OR ADENOMA OR ADENOCARCINOMA, PANCREAS: ISLET CELL ADENOMA OR CARCINOMA, ADRENAL GLAND: PHEOC).
Turning to `[O-][Cl+]O`, the carcinogen call by setting is: (Species: RAT, Strain/Sex: F344/FEMALE, Route: ORAL, 0.03, 0.06% IN DRINKING WATER FOR 85 WK (STUDY DURATION: 85 WK), 0.03, 0.06% IN DRINKING WATER FOR 85 WK (STUDY DURATION: 85 WK)) “inactive; negative”; (Species: RAT, Strain/Sex: F344/MALE, Route: ORAL, 0.03, 0.06% IN DRINKING WATER FOR 85 WK (STUDY DURATION: 85 WK), 0.03, 0.06% IN DRINKING WATER FOR 85 WK (STUDY DURATION: 85 WK)) “inactive; negative”.
Regarding `OCCCl`, the carcinogen call runs as follows: (Species: MOUSE, Strain/Sex: CD-1/FEMALE, Route: DERMAL, 7.5, 15 MG/ANIMAL IN 70% ETHANOL IN WATER 5 D/WK FOR 104 WK, 7.5, 15 MG/ANIMAL IN 70% ETHANOL IN WATER 5 D/WK FOR 104 WK) “inactive; negative”; (Species: MOUSE, Strain/Sex: CD-1/MALE, Route: DERMAL, 7.5, 15 MG/ANIMAL IN 70% ETHANOL IN WATER 5 D/WK FOR 104 WK, 7.5, 15 MG/ANIMAL IN 70% ETHANOL IN WATER 5 D/WK FOR 104 WK) “inactive; negative”; (Species: RAT, Strain/Sex: F344/FEMALE, Route: DERMAL, 50, 100 MG/KG IN 70% ETHANOL IN WATER 5 D/WK FOR 103 WK, 50, 100 MG/KG IN 70% ETHANOL IN WATER 5 D/WK FOR 103 WK) “inactive; negative”; (Species: RAT, Strain/Sex: F344/MALE, Route: DERMAL, 50, 100 MG/KG IN 70% ETHANOL IN WATER 5 D/WK FOR 103 WK, 50, 100 MG/KG IN 70% ETHANOL IN WATER 5 D/WK FOR 103 WK) “inactive; negative”.
Regarding `c1ccc2c(c1)ccc1cc3ccc4ccccc4c3nc12`, the carcinogen call is “active; positive” under setting [1] and “active; positive” (Species: MOUSE, Strain/Sex: CD-1/MALE, Route: INTRAPERITONEAL, 175 NMOL (TOTAL DOSE) ADMINISTERED AS 1/7 OF DOSE WITHIN 24 HR AFTER BIRTH, 2/7 OF DOSE AT 8 D OLD, 4/7 OF DOSE AT 15, Tumor Site: Type of Lesion: LIVER: TUMOR, LUNG: TUMOR).
